The values that follow are results of earlier work, collected in patent US8754055B2, “Methods, compositions, and kits for collecting and detecting oligonucleotides” (The Invention Science Fund I, LLC, priority 2008, dated 2014).

Where two headings read alike, the source gives them in different places.

The conditions of series [1]: 40, 8, and 1.6 μg injections once daily over 35 days.
For series [2] the following is noted: in humans.
The next series deals with T1, RNase A (Bos taurus, UniProt P61823).
T1 sequence (P61823 27-150): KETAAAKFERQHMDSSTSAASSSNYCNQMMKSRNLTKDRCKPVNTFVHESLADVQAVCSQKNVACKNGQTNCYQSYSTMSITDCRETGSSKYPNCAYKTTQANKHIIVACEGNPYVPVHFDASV
The following applies: RNAse A catalysis, read-out: inhibition constant (Ki).

With `Nc1ccc(N=Nc2ccc(-c3ccc(O)cc3)cc2)c2ccc(S(=O)(=O)O)cc12` [8-amino-5-(4′-hydroxylbiphenyl-4-ylazo)naphthalene-2-sulfonate], the overt toxicity result in series [1] was “without overt toxicity”.

In general, half-life refers to how long it takes for the measured level to halve. Consider Etanercept, for which the half-life in series [2] was 70 h.

One may read the Ki as a measure of affinity in units of concentration, obtained from inhibition or displacement. For oligo(vinylsulfonic acid), the results for the inhibitory constant (Ki) at RNase A (0 mM sodium chloride (lower end of salt-dependent range)) and at RNase A (100 mM sodium chloride (upper end of salt-dependent range)) were about 0.01 nM and about 120 nM, respectively.
